{"source": "patent US20140148606A1", "about": "“ANTI-TUMOR EFFECTS OF ALLOSTERIC FOCAL ADHESION KINASE INHIBITOR, METHYL VIOLET DERIVATIVES” (Korea Institute of Science and Technology, priority 2012, published 2014)", "key": {"full-length FAK": {"target": "T1, full-length FAK (Homo sapiens, UniProt Q05397)", "T1 construct": "purchased Signalchem", "assay": "FAK biochemical kinase assay (LANCE Ultra TR-FRET)", "details": "for dependence of kinase inhibitory activity against full-length FAK on the concentration of ATP: methyl violet 2B at 2.7 μM, FIG. 2", "experimental": "Kinase reactions were performed at room temperature in lysis buffer (50 mM HEPES pH 7.5, 1 mM EGTA, 10 mM MgCl2, 2 mM DTT and 0.01% Tween-20) with 0.3 nM FAK (Signalchem), 100 nM ULight-poly GT (PerkinElmer), 10 μM ATP, and various concentrations (10 fold serial dilution, 6 points) of test compounds at a final volume of 10 μL. After 1 h, the kinase reaction was stopped by adding 10 mM EDTA and progressed by incubating the reaction mixture at room temperature for 5 min. To the mixture was added Detection Mix (Eu-anti-phospho-Tyr (PT66)) antibody to a final concentration of 2 nM and incubated for 1 h at room temperature. The plates were covered before being read using an EnVision® Multilabel reader in TR-FRET mode (excitation at 320 nm and emission at 665 nm, PerkinElmer)."}, "A375P cells [1]": {"system": "A375P cells", "assay": "QCM ECMatrix Cell Invasion Assay", "type": "cell-based, human", "details": "1 nM, 48 h", "experimental": "Invasion of A375P cells was assessed by using the QCM ECMatrix Cell Invasion Assay (Chemicon, Millipore, Calif.) according to the manufacturer's protocol. The cells were plated on the membrane of the upper chamber of the transwell at a concentration of 2.5×10^5 cells/well in 500 μL of serum-free medium. The medium in the lower chamber contained the test compound and 10% fetal bovine serum. The cells that passed through the polycarbonate membrane were stained with cell stain solution supplied in the Transwell Invasion assay (Chemicon, Millipore, Calif.) and photographed after 48 h of incubation. The invasion was quantitated by dissolving the stained cells in 10% acetic acid and transferring a consistent amount of the dye/solute mixture to a 96-well plate for colorimetric reading of OD at 560 nm."}, "GSK3β S9": {"system": "GSK3β S9", "assay": "Western analysis, GSK3β phosphorylation in A375P cells", "type": "cell-based, human", "details": "dose-dependent, 48 h", "experimental": "(§1) After incubating with the test compound for 48 h, both adherent and floating cancer cells were collected. The cells were lysed on ice in lysis buffer (50 mM Tris, pH 7.4, 150 mM NaCl, 1 mM EDTA, 1% NP-40, 0.25% sodium deoxycholate) supplemented with phosphatase inhibitors (Sigma #P2850, #5726; Phosphatase Inhibitor Cocktail I & II) and protease inhibitors (Complete, Mini, EDTA-free; Roche Applied Science) for 20 min. The protein concentration was determined using the Bio-Rad Protein assay reagent (Bio-Rad #500-0006). The lysate was centrifuged at 13000 rpm at 4° C. for 20 min. 50 μg of total proteins were mixed with […] (50 mM Tris-HCl (pH 6.8), 2% SDS, 10% 2-mercaptoethanol, 10% glycerol, and 0.002% bromophenol blue), boiled for 5 min, and subjected to a 10% SDS polyacrylamide gel electrophoresis. The proteins were electrophoresed onto nitrocellulose membranes and detected with antibodies against FER, FAK, DOCK180, Pyk2, Paxillin, AKT, GSK3, PTEN, JNK, ERK, Bcl-2, C-raf and Actin and against phosphorylated FER Tyr402, FAK Tyr925, Tyr861, Tyr577, Tyr576, Tyr397, Pyk2 Tyr402, Paxillin Tyr118, AKT S473, T308, GSK3β S9, JNK, ERK, Bad, C-raf and ERM T567, T564, T558 followed by the addition of horseradish peroxidase (HRP)-conjugated secondary antibodies and 3,3-diaminobenzidine tetrahydrochloride (DAB) as the HRP substrate."}, "PTEN": {"system": "PTEN", "assay": "Western analysis, PTEN level in A375P cells", "type": "cell-based, human", "details": "48 h", "experimental": "as §1"}, "p-ERK": {"system": "p-ERK", "assay": "Western analysis, ERK phosphorylation in A375P cells", "type": "cell-based, human", "details": "10 nM, 48 h", "experimental": "as §1"}, "p-Bad": {"system": "p-Bad", "assay": "Western analysis, Bad phosphorylation", "type": "cell-based, human", "details": "compared to Bcl-2", "experimental": "as §1"}, "C-raf": {"system": "C-raf", "assay": "Western analysis, C-raf phosphorylation", "type": "cell-based, human", "experimental": "as §1"}, "MCF7": {"system": "MCF7", "assay": "Anti-proliferative activity assay (MTT / CellTiter-Glo)", "type": "cell-based", "details": "Homo sapiens; MCF7, breast; read-out: IC50 (nM), proliferation", "experimental": "(§2) Melanoma cells (A375P, A375SM) and breast cancer cells (MDA-MB-231, MCF7) were maintained in DMEM medium (Welgene, Daegu, Korea). Colorectal cancer cells (HCT116, HT29), lung cancer cells (A549) and prostate cancer cells (DU145) were grown in RPMI1640 medium (Welgene). NIH3T3 and Balb/c cells were cultured in DMEM/F12 medium (Welgene).\n(§3) Each medium was supplemented with 10% FBS (Welgene) and 1% penicillin/streptomycin (Welgene) in a humidified atmosphere with 5% CO2 at 37° C. A375P cells were purchased from the American Type Culture Collection (ATCC, Rockville, Md., US), and A375SM, MDA-MB-231, MCF7, HCT116, HT29, A549, DU145, NIH3T3 and Balb/c were purchased from the Korean Cell Line Bank (Seoul, Korea).\n(§4) Cells were taken from culture substrate with 0.05% trypsin-0.02% EDTA and plated at a density of 5×10^3 cells/well in 96 well plates and then incubated at 37° C. for 24 h in a humidified atmosphere with 5% CO2 prior to treatment of various concentration (tenfold serial dilution, 6 steps) of test compounds. The cell viability was assessed by the conventional 3-(4,5-dimethylthiazol-2-yl)-2,5-diphenyltetrazolium bromide (MTT) reduction assay and luminescent assay. The MTT and luminescent assays were carried out with CellTiter 96® and CellTiter-Glo® Luminescent Cell Viability Assay (Promega, Wis., USA) according to the manufacturer's instructions. The absorbance at 590 nm was recorded using EnVision2103 (PerkinElmer; Boston, Mass., US). The IC50 value was calculated using the GraphPad Prism 4.0 software."}, "A375P": {"system": "A375P", "assay": "Anti-proliferative activity assay (MTT / CellTiter-Glo)", "type": "cell-based", "details": "Homo sapiens, skin, read-out: IC50 (nM), proliferation", "experimental": "as §2, §3, §4"}, "NIH3T3": {"system": "NIH3T3", "assay": "Anti-proliferative activity assay (MTT / CellTiter-Glo)", "type": "cell-based", "details": "Mus musculus; NIH3T3, fibroblast; read-out: IC50 (nM), proliferation", "experimental": "as §2, §3, §4"}, "HT29": {"system": "HT29", "assay": "Anti-proliferative activity assay (MTT / CellTiter-Glo)", "type": "cell-based", "details": "Homo sapiens, HT-29; HT29, colon; read-out: IC50 (nM), proliferation", "experimental": "as §2, §3, §4"}, "MDA-MB-231": {"system": "MDA-MB-231", "assay": "Anti-proliferative activity assay (MTT / CellTiter-Glo)", "type": "cell-based", "details": "Homo sapiens; MDA-MB-231, breast; read-out: IC50 (nM), proliferation", "experimental": "as §2, §3, §4"}, "DU145": {"system": "DU145", "assay": "Anti-proliferative activity assay (MTT / CellTiter-Glo)", "type": "cell-based", "details": "Homo sapiens, DU-145; DU145, prostate; read-out: IC50 (nM), proliferation", "experimental": "as §2, §3, §4"}, "A375SM": {"system": "A375SM", "assay": "Anti-proliferative activity assay (MTT / CellTiter-Glo)", "type": "cell-based", "details": "Homo sapiens, A375-SM, skin, read-out: IC50 (nM), proliferation", "experimental": "as §2, §3, §4"}, "A549": {"system": "A549", "assay": "Anti-proliferative activity assay (MTT / CellTiter-Glo)", "type": "cell-based", "details": "Homo sapiens; A549, lung; read-out: IC50 (nM), proliferation", "experimental": "as §2, §3, §4"}, "HCT116": {"system": "HCT116", "assay": "Anti-proliferative activity assay (MTT / CellTiter-Glo)", "type": "cell-based", "details": "Homo sapiens, HCT-116; HCT116, colon; read-out: IC50 (nM), proliferation", "experimental": "as §2, §3, §4"}, "Balb/c": {"system": "Balb/c", "assay": "Anti-proliferative activity assay (MTT / CellTiter-Glo)", "type": "cell-based", "details": "Mus musculus, fibroblast, read-out: IC50 (nM), proliferation", "experimental": "as §2, §3, §4"}, "FER Tyr402": {"system": "FER Tyr402", "assay": "Western analysis, FER phosphorylation in A375P cells", "type": "cell-based, human", "details": "10 nM, 48 h", "experimental": "as §1"}, "A375P cells [2]": {"system": "A375P cells", "assay": "Migration (wound healing) assay, Ibidi Culture-Insert", "type": "cell-based, human", "details": "1 nM, 48 h", "experimental": "Migration of the A375P cells was assessed by using the Culture-Inserts (Ibidi) according to the manufacturer's protocol. The cells were plated at a density of 1×10^5 cells/well in each well of Culture-Inserts. After 24 h incubation, the Culture-Inserts were removed, and wounds were created by using a 500-μm thick wall. The dish containing these cells was treated with medium containing the compound and incubated at 37° C. for 48 h. Phase-contrast images of the closed gap wound were captured using a microscope."}, "AKT": {"system": "AKT", "assay": "Western analysis, AKT phosphorylation in A375P cells", "type": "cell-based, human", "details": "1 nM, 48 h", "experimental": "as §1"}, "FAK": {"system": "FAK", "assay": "Western analysis, FAK phosphorylation in A375P cells", "type": "cell-based, human", "details": "0.1-10 nM, 48 h", "experimental": "as §1"}, "p-JNK": {"system": "p-JNK", "assay": "Western analysis, JNK phosphorylation in A375P cells", "type": "cell-based, human", "details": "10 nM, 48 h", "experimental": "as §1"}, "Bcl-2": {"system": "Bcl-2", "assay": "Western analysis, Bcl-2 expression", "type": "cell-based, human", "details": "concentrations >1 nM, concentration-dependent", "experimental": "as §1"}}}
{"smiles": "CNC(=O)c1ccccc1Nc1nc(Nc2ccc(N3CCOCC3)cc2OC)ncc1Cl", "note": "[TAE226, reference compound]", "values": [{"measurement": "dependence of kinase inhibitory activity against full-length FAK on the concentration of ATP", "setting": "full-length FAK", "value": "inversely proportional to the concentration of ATP"}]}
{"smiles": "CN=C1C=CC(=C(c2ccc(N(C)C)cc2)c2ccc(N(C)C)cc2)C=C1.Cl", "note": "[methyl violet 2B]", "values": [{"measurement": "invasion of the A375P cells", "setting": "A375P cells [1]", "value": "dose-dependent decrease"}, {"measurement": "phosphorylation of GSK3β S9", "setting": "GSK3β S9", "value": "significantly blocked"}, {"measurement": "level of PTEN", "setting": "PTEN", "value": "not altered"}, {"measurement": "inhibitory effect against p-ERK", "setting": "p-ERK", "value": "strong inhibitory effect"}, {"measurement": "effect on p-Bad", "setting": "p-Bad", "value": "less effective"}, {"measurement": "phosphorylation of C-raf", "setting": "C-raf", "value": "did not affect"}, {"measurement": "IC50", "setting": "MCF7", "value": 69.7, "unit": "nM"}, {"measurement": "IC50", "setting": "A375P", "value": 19.6, "unit": "nM"}, {"measurement": "IC50", "setting": "NIH3T3", "value": 938, "unit": "nM"}, {"measurement": "IC50", "setting": "HT29", "value": 18.1, "unit": "nM"}, {"measurement": "IC50", "setting": "MDA-MB-231", "value": 13.4, "unit": "nM"}, {"measurement": "IC50", "setting": "DU145", "value": 81.5, "unit": "nM"}, {"measurement": "IC50", "setting": "A375SM", "value": 34.1, "unit": "nM"}, {"measurement": "IC50", "setting": "A549", "value": 45.6, "unit": "nM"}, {"measurement": "IC50", "setting": "HCT116", "value": 36.9, "unit": "nM"}, {"measurement": "IC50", "setting": "Balb/c", "value": 59400, "unit": "nM"}, {"measurement": "inhibition of phosphorylation of FER Tyr402", "setting": "FER Tyr402", "value": "significantly inhibits"}, {"measurement": "cancer cell (A375P) motility / migration", "setting": "A375P cells [2]", "value": "suppresses"}, {"measurement": "inhibition of p-AKT Ser473", "setting": "AKT", "value": "dramatically inhibits"}, {"measurement": "inhibition of p-AKT Thr308", "setting": "AKT", "value": "dramatically inhibits"}, {"measurement": "inhibitory effect on phosphorylation of FAK Tyr925, Tyr861 and Tyr577", "setting": "FAK", "value": "much greater than that of Y576 and Y397"}, {"measurement": "IC50", "setting": "full-length FAK; 10 μM ATP, LANCE Ultra kinase assay", "value": 2700, "unit": "nM"}, {"measurement": "dependence of kinase inhibitory activity against full-length FAK on the concentration of ATP", "setting": "full-length FAK", "value": "independent of the concentration of ATP"}, {"measurement": "inhibitory effect against p-JNK", "setting": "p-JNK", "value": "strong inhibitory effect"}, {"measurement": "expression of the anti-apoptotic molecule Bcl-2", "setting": "Bcl-2", "value": "significantly suppressed"}]}
